Experimental data: patent publication US10562939B2, “Method for significantly increasing lentiviral production” (priority 2016, dated 2020)

Experiments:
[1] = target: T1, interaction between HIV-1 MA and arginyl-tRNA synthetase (RRS) (Homo sapiens, UniProt P54136); experiment: Co-immunoprecipitation of RRS with HIV-1 MA (control); format: binding
T1 construct: endogenous in cells; host or cells: 293A-MA-FH cells (RRS endogenous; MA-flag stably expressed)
T1 sequence (P54136 1-660): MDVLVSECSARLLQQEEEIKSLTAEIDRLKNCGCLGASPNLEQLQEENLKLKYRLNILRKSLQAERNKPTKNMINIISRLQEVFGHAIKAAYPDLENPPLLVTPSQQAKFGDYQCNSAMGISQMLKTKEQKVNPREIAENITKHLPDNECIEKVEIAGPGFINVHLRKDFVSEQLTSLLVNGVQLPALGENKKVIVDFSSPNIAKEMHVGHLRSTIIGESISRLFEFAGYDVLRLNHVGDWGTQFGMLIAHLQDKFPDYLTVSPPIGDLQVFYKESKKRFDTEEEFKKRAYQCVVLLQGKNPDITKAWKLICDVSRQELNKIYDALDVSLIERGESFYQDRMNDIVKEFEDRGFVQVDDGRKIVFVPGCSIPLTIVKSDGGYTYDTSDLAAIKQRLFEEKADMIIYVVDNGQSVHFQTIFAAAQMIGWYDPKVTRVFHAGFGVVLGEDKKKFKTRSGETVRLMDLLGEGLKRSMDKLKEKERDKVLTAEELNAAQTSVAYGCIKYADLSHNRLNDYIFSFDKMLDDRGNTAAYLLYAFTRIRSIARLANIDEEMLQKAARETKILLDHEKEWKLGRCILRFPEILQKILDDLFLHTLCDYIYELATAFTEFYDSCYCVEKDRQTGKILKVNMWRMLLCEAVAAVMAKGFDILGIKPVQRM
Protocol: As a control, the interaction between MA and another MA-interacting protein, arginyl-tRNA synthetase (RRS), a subunit of the aminoacyl-tRNA synthetase complex, was also evaluated. The coimmunoprecipitation of RRS and HIV-1 MA was not affected by addition of myristic acid (FIG. 1D).

[2] = system: HIV-1 virion production in 293A cells; experiment: Virus-like particle (VLP) detection, 293A cells transfected with pNL4.3luc, CA Western blot; conditions: 20-40 micromolar, 48 hours, FIG. 4C
[3] = target: T2, human HO-2 (Homo sapiens, UniProt P30519); experiment: Fatty acid binding to HO-2 (crystal structure); conditions: FIG. 2E
T2 construct: The HO-2 gene fragment encoding amino acid residues 30-242 was cloned into a pET28a vector; made in house; host or cells: Escherichia coli BL21 (DE3) Star
T2 sequence (P30519 30-242): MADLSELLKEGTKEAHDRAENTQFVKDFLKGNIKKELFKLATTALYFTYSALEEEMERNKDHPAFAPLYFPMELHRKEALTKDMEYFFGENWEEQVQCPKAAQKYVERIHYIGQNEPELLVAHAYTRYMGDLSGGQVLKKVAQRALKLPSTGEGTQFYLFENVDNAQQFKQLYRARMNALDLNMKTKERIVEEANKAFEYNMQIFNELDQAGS
Protocol: To make the myristate complex, sodium myristate was dissolved in water at 50° C., and mixed with 20 mg/ml protein solution and incubated at 37° C. water bath for 30 min. The complex solution was then used to set up crystallization by mixing with (0.1 M Bis-Tris, (pH 5.5), 28% (w/v) polyethylene glycol 550 monomethyl ether, and 5 mM MgCl2). Crystals were directly flash-frozen in liquid nitrogen.
The laurate complex crystals were obtained by soaking apo crystals in well solution with 5 mM sodium laurate overnight and transferred to well solution with 35% (w/v) of precipitant before flash-frozen in liquid nitrogen. The crystals belong to space group P212121 and there are four protein molecules in the asymmetric unit.
X-ray diffraction data sets were collected at beamline 24-ID-E of the Advanced Photon Source (APS). The data were processed with the HKL package (Otwinowski and Minor, 1997). The structures were solved by molecular replacement using entry 2Q32 from the Protein Data Bank as the model. The myristate and laurate were manually added with Coot (Emsley and Cowtan, 2004) and refined with Phenix (Adams et al., 2002).
The crystal structure was also determined at 2.1 Å resolution of human HO-2 in complex with the C12 fatty acid laurate (FIG. 2E, Table 1B). The crystal was isomorphous to that of the myristate complex. […]

In the case of CCCCCCCCCCCCCC(=O)O [myristic acid], the “coimmunoprecipitation of RRS and HIV-1 MA” value ([1]; myristic acid added to cell lysates, FIG. 1D) is reported as “not affected”.
C=CC1=C(C)C2=Cc3c(C=C)c(C)c4[n]3[Sn]([Cl])([Cl])[n]3c(c(C)c(CCC(=O)O)c3=CC3=NC(=C4)C(C)=C3CCC(=O)O)=CC1=N2 [SnPPIX, tin protoporphyrin IX dichloride] was tested, and the “interaction between HIV-1 MA and RRS” value ([1]; increasing concentrations of SnPPIX, FIG. 4B) was “no effect” and the “virus yield (CA levels in virions)” value [2] was “dramatic increases in virus yield”.
With CCCCCCCCCCCC(=O)O [laurate] the “binding to HO-2” value [3] was “could indeed bind”.
